Assay results published in US20260027096A1, “PHD INHIBITORS” (Oxford University Innovation Limited, priority 2023, published 2026).
Entries after “also recorded” stand apart in the source; their conditions may differ.

Legend:
[1] = tested on: primary human AML cells (patient samples); experiment: Apoptosis of primary human AML patient samples; format: cell-based; details: 50 μM
Procedure: Frozen AML samples were retrieved from Barts Cancer Institute Biobank and quickly thawed at 37° C. Upon thawing, T cells were depleted from all samples using EasySep™ Human TCR Alpha/Beta Depletion Kit (Stem Cell Technologies, #17847). Enriched samples were plated in concentration 0.4-1.0×10^6/mL in Myelocult H5100 medium (Stem Cell Technologies, #05150) supplemented with 20 ng/ml IL-3, G-CSF and TPO (Biolegend) in co-culture with irradiated MS-5 cells and treated with 50 μM Dap, 50 μM IOX5 (68, example 46), 1 μM Venetoclax or vehicle control for 7 days. After 3 days of treatment, half the sample was used for plating CFU assays and initial analyses, the other half was given fresh medium containing the corresponding agent. After 7 days, viable cell numbers were counted, viability was assessed using Annexin V FITC/PI stain, cell cycle was measured using PI, and the expression of CD45, CD34, CD11b and CD14 was determined. CFC assays were counted 11 days after plating. Samples were deemed sensitive to treatment if either a decrease in viability or a decrease in proliferation, as validated by cell cycle phase distribution, was detected.
To investigate the clinical utility of PHD inhibition in human AML, it was next determined the impact of Dap or IOX5 (68, example 46) on AML patient samples (FIG. 29), focusing on poor-risk AML, which is characterised by a particularly low overall patient survival rate^73.
Finally, the clinical applicability of PHD inhibition in AML was validated by treating independent patient-derived primary AML cells with Daprodustat (2) and IOX5 (68, example 46). […] Taken together, Examples 163 to 167 provide genetic and pharmacological evidence that PHD inhibition is a plausible therapeutic strategy in AML.

[2] = tested on: K562, OCI-AML3, KASUMI1, MV-4-11 and MOLM13 cells; experiment: Proliferation and apoptosis of human leukaemic cell lines; format: cell-based; details: 50 μM
Source text: (§1) Viable cells were counted by trypan blue exclusion at the indicated time points. To analyse cells undergoing apoptosis, cells were suspended in binding buffer containing PE-conjugated Annexin-V or FITC-conjugated Annexin-V, and either PI or DAPI.
To examine the impact of PHD inhibition in human leukaemia cells with other mutational backgrounds, different myeloid leukaemia cells were used, namely K562 (CML, with BCR-ABL translocation), OCL-AML3 cells (AML with DNMT3A, NRAS and NPM1 mutations), KASUMI1 cells (AML with AML-ETO translocation), MV-4-11 (AML with FLT3-ITD mutation), and MOLM13 (AML with FLT3-ITD mutation and MLL-AF9 translocation). […] Thus, multiple potent PHD inhibitors, with distinct mode of action, compromise leukaemic cells independently from their mutational status.

[3] = tested on: mouse iMLL-AF9- and Meis1Hoxa9-transformed AML cells; experiment: Proliferation and apoptosis of murine iMLL-AF9 and Meis1Hoxa9 AML cells; format: cell-based; details: 50 μM
Source text: as §1
(§2) To determine consequences of Daprodustat (2) and IOX5 (68, example 46) treatment on AML cells driven by the MLL-AF9→MEIS1/HOXA9 axis, mouse iMLL-AF9-and Meis1Hoxa9-transformed AML cells were employed, as well as human THP-1 cells, which harbour the MIL-AF9 translocation. […] Thus, providing compelling evidence that PHD inhibition compromises AML cells driven by the MLL-AF9→MEIS1/HOXA9 axis.

[4] = tested on: HIF-1α in MOLM13, OCI-AML3, MV411 and THP-1 cells; experiment: Western blot of HIF-1α in human AML cell lines; format: cell-based; details: for HIF-1α protein level (immunoblot): human AML cell lines, 50 μM, 48 hrs
Procedure: Total protein extracts (45 μg) were subjected to SDS-PAGE (NuPAGE™ 4-12% Bis-Tris Plus Gel, ThermoFisher Scientific, NP0323BOX) and then transferred onto a polyvinylidene difluoride membranes using wet transfer. Membranes were blocked in 5% milk-TBST (TBS with 0.1% Tween20) and probed with anti-HIF1-α (Novus Biological, NB100-105, 1:1000, ON at 4° C.) and anti-β-actin (Cell Signalling Technology, #3700, 1:10 000, ON at 4° C.). After incubation with appropriate horseradish peroxidase- coupled secondary antibody (Cell Signalling Technology, Anti-mouse IgG, #7076, 1:2000, 2 h at room temperature), proteins were detected with Clarity Western ECL Substrate (BioRad, #1705061) and acquired on the Amersham Imager 600 (GE Healthcare Life Sciences).
Equipped with currently available PHD inhibitors and newly generated IOX5 (68, example 46), the impact of pharmacological PHD inhibition on AML cells was assessed. […] Thus, while PHD inhibition consistently stabilises HIF-1α protein across all tested AML cell lines, HIF-2α stabilisation is variable and cell line-specific.

[5] = tested on: BNIP3 mRNA in human AML cells; experiment: qPCR of BNIP3 (BAX, BAK) in human AML cells; format: cell-based; details: for BNIP3 mRNA expression: MOLM13, OCI-AML3, MV411 and THP-1 cells; for BNIP3, BAX and BAK transcripts (qPCR): MOLM-13 cells, 50 μM
Procedure: RNA was isolated using Direct-zol RNA Miniprep kit (Zymo Research, #R2051) and reverse transcribed using High-Capacity cDNA Reverse Transcription Kit (Applied Biosystems). For real-time quantitative PCR (qPCR), 5 ng of cDNA, 5 μL of PowerUp SYBR Green MasterMix (Applied Biosystems) and 2 pmol of primers were used per well of 384-well plate. Reactions were performed in triplicate using C1000 Thermocycler 384well (BioRad). Gene expression was quantified using comparative AA-Ct method and ACTB was used as the housekeeping gene. Data is expressed as log 2 fold change in comparison to control sample and represents results of three independent experiments measured in duplicate.
Given that the primary function of PHD2 is to promote HIF-α degradation, HIF-1α levels were measured following the treatment of AML cells with PHD inhibitors. […] To investigate whether HIF-α mediates the anti-leukaemic effects of PHD inhibition, Meis1/Hoxa9-transformed AML cells lacking both Hif1α and Hif2α and control cells were employed (Vukovic et al., 2015). […] Next, to investigate a molecular mechanism behind the anti-leukaemic effect of PHD inhibition, HIF-dependent transcripts that were dysregulated were interrogated via (68, example 46)-treatment in murine cells.

human THP-1 cells = experiment: Proliferation and apoptosis of THP-1 cells; format: cell-based; details: THP-1, 50 μM
Source text: as §1, §2

[6] = tested on: murine AML cells harbouring FLT3-ITD mutations (with and without NPM1 mutations), PML-RARα and AML1-ETO; experiment: Proliferation and apoptosis of murine AML cells with other drivers; format: cell-based, mouse
Source text: as §1
To validate the anti-leukaemic effect of PHD inhibition on AML cells transformed by drivers independent from the MLL/Meis1/Hoxa9 axis, murine AML cells harbouring FLT3-ITD mutations were employed (with and without NPM1 mutations), PML-RARα and AML1-ETO.

Compound	apoptosis of primary human AML cells [1]	apoptosis of primary human AML cells ([1]; listed as Dap)	apoptosis [2]	proliferation [2]	apoptosis [3]	proliferation [3]	HIF-1α protein level (immunoblot) [4]	BNIP3 mRNA expression [5]	BNIP3, BAX and BAK transcripts (qPCR) [5]	apoptosis (human THP-1 cells)	proliferation (human THP-1 cells)	apoptosis (Annexin-V+DAPI+) [6]	proliferation [6]	HIF-1α protein level over time (western blot) ([4]; THP-1 cells, continuous treatment for 96 hours)
O=C(O)CNC(=O)c1c(O)n(C2CCCCC2)c(=O)n(C2CCCCC2)c1=O [Daprodustat, daprodustat, reference compound]	significantly increased primary human AML cell apoptosis	clearly increased apoptosis	induced their apoptosis	consistently compromised the proliferation	induced their apoptosis	compromised their proliferative capacity	strongly stabilised HIF-1a; also recorded: increased HIF-1α levels	strongly induced BNIP3 expression	upregulation of BNIP3 was found, as well as its downstream effectors BAX and BAK	induced their apoptosis	compromised their proliferative capacity	induced apoptosis	reduced the proliferative rate	–
O=C(NCC1CCC(C(F)(F)F)CC1)c1c[nH]c(-n2cccn2)cc1=O (centres unmarked) [IOX5]	clearly increased apoptosis; also recorded: significantly increased primary human AML cell apoptosis	–	induced their apoptosis	consistently compromised the proliferation	induced their apoptosis	compromised their proliferative capacity	strongly stabilised HIF-1a; also recorded: increased HIF-1α levels	strongly induced BNIP3 expression	upregulation of BNIP3 was found, as well as its downstream effectors BAX and BAK	induced their apoptosis	compromised their proliferative capacity	induced apoptosis	reduced the proliferative rate	substantially stabilised after 3-12 hours, its levels decreased between 24-48 hours, then increased 72-96 hours after treatment initiation
